Experimental data published in PubChem BioAssay (NCI).
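How tested: cells in 96-well plates exposed to compound for 48 hours at five concentrations. TGI: concentration producing complete growth inhibition.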

Assays:
Assay in all cases: DTP human tumour cell line panel, 48 h
ACHN renal = tested on: ACHN renal
NCI-H522 lung = tested on: NCI-H522 lung
RXF 393 renal = tested on: RXF 393 renal
K-562 leukemia = tested on: K-562 leukemia
OVCAR-8 ovarian = tested on: OVCAR-8 ovarian
SN12C renal = tested on: SN12C renal
NCI-H226 lung = tested on: NCI-H226 lung
786-0 renal = tested on: 786-0 renal
SK-MEL-2 melanoma = tested on: SK-MEL-2 melanoma
MDA-MB-435 = tested on: MDA-MB-435
UO-31 renal = tested on: UO-31 renal
OVCAR-4 ovarian = tested on: OVCAR-4 ovarian
SF-295 CNS = tested on: SF-295 CNS
SNB-75 CNS = tested on: SNB-75 CNS
UACC-257 melanoma = tested on: UACC-257 melanoma
KM12 colon = tested on: KM12 colon
TK-10 renal = tested on: TK-10 renal
CAKI-1 renal = tested on: CAKI-1 renal
OVCAR-3 ovarian = tested on: OVCAR-3 ovarian
SK-MEL-28 melanoma = tested on: SK-MEL-28 melanoma
HOP-92 NSCLC = tested on: HOP-92 NSCLC
NCI-H460 lung = tested on: NCI-H460 lung
HL-60(TB) leukemia = tested on: HL-60(TB) leukemia
HCT-15 colon = tested on: HCT-15 colon
EKVX NSCLC = tested on: EKVX NSCLC
UACC-62 melanoma = tested on: UACC-62 melanoma
MOLT-4 leukemia = tested on: MOLT-4 leukemia
M14 melanoma = tested on: M14 melanoma
T-47D breast = tested on: T-47D breast
NCI-H23 lung = tested on: NCI-H23 lung
IGROV1 ovarian = tested on: IGROV1 ovarian
PC-3 prostate = tested on: PC-3 prostate
MDA-N = tested on: MDA-N
A498 renal = tested on: A498 renal
HOP-62 NSCLC = tested on: HOP-62 NSCLC
MDA-MB-231 breast = tested on: MDA-MB-231 breast
HS 578T breast = tested on: HS 578T breast
CCRF-CEM leukemia = tested on: CCRF-CEM leukemia
LOX IMVI melanoma = tested on: LOX IMVI melanoma
SF-268 CNS = tested on: SF-268 CNS
SK-OV-3 ovarian = tested on: SK-OV-3 ovarian
U251 CNS = tested on: U251 CNS
HT29 colon = tested on: HT29 colon
DU-145 prostate = tested on: DU-145 prostate
SF-539 CNS = tested on: SF-539 CNS
SK-MEL-5 melanoma = tested on: SK-MEL-5 melanoma
MCF7 breast = tested on: MCF7 breast
NCI/ADR-RES ovarian = tested on: NCI/ADR-RES ovarian
SR leukemia = tested on: SR leukemia
BT-549 breast = tested on: BT-549 breast
HCT-116 colon = tested on: HCT-116 colon
SW-620 colon = tested on: SW-620 colon
RPMI-8226 leukemia = tested on: RPMI-8226 leukemia
COLO 205 colon = tested on: COLO 205 colon
SNB-19 CNS = tested on: SNB-19 CNS
A549 NSCLC = tested on: A549 NSCLC
MALME-3M melanoma = tested on: MALME-3M melanoma
OVCAR-5 ovarian = tested on: OVCAR-5 ovarian
HCC-2998 colon = tested on: HCC-2998 colon

Compound: C=C(C)COc1ccc2c(c1)CCC1C2CCC2(C)C(=O)/C(=N/O)CC12 (stereo not given)
- TGI (ACHN renal): 15.2 µM
- TGI (NCI-H522 lung): 17.4 µM
- TGI (RXF 393 renal): 6.78 µM
- TGI (K-562 leukemia): 9.96 µM
- TGI (OVCAR-8 ovarian): 24.1 µM
- TGI (SN12C renal): 14 µM
- TGI (NCI-H226 lung): 26.6 µM
- TGI (786-0 renal): 13 µM
- TGI (SK-MEL-2 melanoma): 14.1 µM
- TGI (MDA-MB-435): 7.61 µM
- TGI (UO-31 renal): 15.3 µM
- TGI (OVCAR-4 ovarian): 9.69 µM
- TGI (SF-295 CNS): 19.3 µM
- TGI (SNB-75 CNS): 11.9 µM
- TGI (UACC-257 melanoma): 23.5 µM
- TGI (KM12 colon): 5.77 µM
- TGI (TK-10 renal): 5.58 µM
- TGI (CAKI-1 renal): 10.2 µM
- TGI (OVCAR-3 ovarian): 14.6 µM
- TGI (SK-MEL-28 melanoma): 33.3 µM
- TGI (HOP-92 NSCLC): 10.4 µM
- TGI (NCI-H460 lung): 3.14 µM
- TGI (HL-60(TB) leukemia): 5.92 µM
- TGI (HCT-15 colon): 7.52 µM
- TGI (EKVX NSCLC): 9.32 µM
- TGI (UACC-62 melanoma): 28.5 µM
- TGI (MOLT-4 leukemia): 6.05 µM
- TGI (M14 melanoma): 14.4 µM
- TGI (T-47D breast): 8.61 µM
- TGI (NCI-H23 lung): 15.5 µM
- TGI (IGROV1 ovarian): 4.6 µM
- TGI (PC-3 prostate): 10.5 µM
- TGI (MDA-N): 14.7 µM
- TGI (A498 renal): 24.3 µM
- TGI (HOP-62 NSCLC): 21.2 µM
- TGI (MDA-MB-231 breast): 4.93 µM
- TGI (HS 578T breast): 27.7 µM
- TGI (CCRF-CEM leukemia): 6.61 µM
- TGI (LOX IMVI melanoma): 13.9 µM
- TGI (SF-268 CNS): 23.3 µM
- TGI (SK-OV-3 ovarian): 22.4 µM
- TGI (U251 CNS): 16.3 µM
- TGI (HT29 colon): 2.72 µM
- TGI (DU-145 prostate): 7.93 µM
- TGI (SF-539 CNS): 26.3 µM
- TGI (SK-MEL-5 melanoma): 21.1 µM
- TGI (MCF7 breast): 10.5 µM
- TGI (NCI/ADR-RES ovarian): 21.8 µM
- TGI (SR leukemia): 4.14 µM
- TGI (BT-549 breast): 21.2 µM
- TGI (HCT-116 colon): 3.08 µM
- TGI (SW-620 colon): 9.94 µM
- TGI (RPMI-8226 leukemia): 7.54 µM
- TGI (COLO 205 colon): 14.4 µM
- TGI (SNB-19 CNS): 25.4 µM
- TGI (A549 NSCLC): 26.4 µM
- TGI (MALME-3M melanoma): 29.1 µM
- TGI (OVCAR-5 ovarian): 18.7 µM

Compound: C1=NN2C(c3ccccc3)=NOC2C2C(c3ccccc3)=NOC12 (stereo not given)
- TGI (ACHN renal): > 100 µM
- TGI (NCI-H522 lung): > 100 µM
- TGI (RXF 393 renal): > 100 µM
- TGI (HCC-2998 colon): > 100 µM
- TGI (OVCAR-8 ovarian): > 100 µM
- TGI (NCI-H226 lung): > 100 µM
- TGI (786-0 renal): > 100 µM
- TGI (UO-31 renal): > 100 µM
- TGI (SF-295 CNS): > 100 µM
- TGI (SNB-75 CNS): > 100 µM
- TGI (UACC-257 melanoma): > 100 µM
- TGI (KM12 colon): > 100 µM
- TGI (TK-10 renal): > 100 µM
- TGI (CAKI-1 renal): > 100 µM
- TGI (OVCAR-3 ovarian): > 100 µM
- TGI (NCI-H460 lung): > 100 µM
- TGI (HCT-15 colon): > 100 µM
- TGI (EKVX NSCLC): > 100 µM
- TGI (UACC-62 melanoma): > 100 µM
- TGI (M14 melanoma): > 100 µM
- TGI (NCI-H23 lung): > 100 µM
- TGI (IGROV1 ovarian): > 100 µM
- TGI (PC-3 prostate): > 100 µM
- TGI (MDA-N): > 100 µM
- TGI (HOP-62 NSCLC): > 100 µM
- TGI (MDA-MB-231 breast): > 100 µM
- TGI (HS 578T breast): > 100 µM
- TGI (LOX IMVI melanoma): > 100 µM
- TGI (SF-268 CNS): > 100 µM
- TGI (SK-OV-3 ovarian): > 100 µM
- TGI (DU-145 prostate): > 100 µM
- TGI (SF-539 CNS): > 100 µM
- TGI (SK-MEL-5 melanoma): > 100 µM
- TGI (MCF7 breast): > 100 µM
- TGI (NCI/ADR-RES ovarian): > 100 µM
- TGI (BT-549 breast): > 100 µM
- TGI (HCT-116 colon): > 100 µM
- TGI (COLO 205 colon): > 100 µM
- TGI (SNB-19 CNS): > 100 µM
- TGI (A549 NSCLC): > 100 µM
- TGI (MALME-3M melanoma): > 100 µM
- TGI (OVCAR-5 ovarian): > 100 µM
